Data published in patent US11371040B2, “Endonuclease-barcoding” (priority 2015, dated 2022).

What was measured:
MCF7 cells = test: TP53 CRISPR-barcoding (TP53-STOP vs TP53-WT barcode, qPCR) in MCF7 cells; format: cell-based; conditions: relative to TP53-WT control barcode
Experimental: (§1) 293T (human embryonic kidney), DLD-1, HCT-116 (colorectal carcinoma), MCF-7 (breast cancer) were obtained from ATCC, PC9 cells (NSCLC) were obtained from ECACC-Sigma-Aldrich, Kelly cells (neuroblastoma) were a kind gift from Dr. C. Einvik. All cells were grown in Dulbecco's modified Eagle's Medium (Life technologies) except Kelly and PC-9 cells, grown in Roswell Park Memorial Institute medium (Life technologies), both supplemented with 10% fetal bovine serum (FBS, Life Technologies) and 0.6% penicillin/streptomycin (Life technologies). Cells were transfected with a Nucleofector II device (Lonza) using the Amaxa Nucleofector kit (Lonza) and electroporation program recommended by the manufacturer. 293T cells were transfected using polyethylenimine (Polysciences). The efficiency of each transfection was assessed in parallel using a GFP-containing plasmid. […]
(§2) gDNA was extracted using the NucleoSpin Tissue kit (Macherey-Nagel). […] Primer specificity for each particular barcode was assessed. qPCR was performed from 100 ng of gDNA using SYBR Green (Life Technologies) on a 7900 HT Fast-Real-Time, a Q-PCR ABI PRISM 7500 or a QuantStudio Flex PCR System (Life Technologies). qPCR analysis was performed using the standard curve or the Pfaffl methods (Pfaffl, 2001).

HCT-116 cells = test: TP53 CRISPR-barcoding (TP53-STOP vs TP53-WT barcode, qPCR) in HCT-116 cells; format: cell-based; conditions: relative to TP53-WT control barcode
Experimental: as §1, §2

PC9 cells [1] = test: KRAS-G12 CRISPR-barcoding in PC9 cells; format: cell-based; conditions: PC9 cells treated in the presence or absence of inhibitor
Text: CRISPR Barcoding sgRNA target sequences (See Sequence Listing—SEQ ID No 1-14) were designed using the CRISPR Design tool hosted by the Massachusetts Institute of Technology (see the website located at crispr.mit,edu) to minimize potential off-target effects. Oligos encoding the targeting sequence were then annealed and ligated into the pSpCas9(BB)-2A-Puro (Ran et al., 2013) vector digested with Bbsl (New England Biolabs). The sequence of the ssODNs (Integrated DNA Technologies) used for CRISPR/Cas9-mediated HDR, containing one missense/nonsense mutation coupled with different silent mutations, are provided in the sequence listing (SEQ ID No 15-29). The set of silent mutations is designed to enable PCR specificity and to avoid recognition by the corresponding sgRNA used to cleave the endogenous sequence. For each targeted locus, cells were co-transfected with 2 μg of the CRISPR/Cas9 plasmid and […] of either the control or the sense/nonsense ssODN (50 μM). […]
gDNA was extracted using the NucleoSpin Tissue kit (Macherey-Nagel). […] Primer specificity for each particular barcode was assessed. qPCR was performed from 100 ng of gDNA using SYBR Green (Life Technologies) on a 7900 HT Fast-Real-Time, a Q-PCR ABI PRISM 7500 or a QuantStudio Flex PCR System (Life Technologies). qPCR analysis was performed using the standard curve or the Pfaffl methods (Pfaffl, 2001). […]

PC9 cells [2] = test: EML4-ALK inversion barcoding in PC9 cells; format: cell-based
PC9 cells [3] = test: Mouse xenografts of multiplex CRISPR-barcoded PC9 cells; format: in vivo, SCID mice
Experimental: PC9 cells containing the EGFR-T790, KRAS-G12 and EML4-ALK barcodes were resuspended in PBS and subcutaneously inoculated in the left and right flank (2×10^6 cells per site) of male SCID mice (NCI). The size of the tumors was measured by caliper every 3-4 days. […] When the size of at least one of the tumors reached the arbitrary volume of 550 mm^3, the mice were sacrificed and gDNA was extracted from the tumors for qPCR analysis.
When at least one of the two tumors exceeded the arbitrary volume of 550 mm^3, the mice were sacrificed and gDNA was derived from the tumors. The frequency of the three different mutations in the tumor samples was measured by qPCR and normalized to the levels observed in the same batch of cells prior to injection in the mice.

## COc1ccc(C2=N[C@@H](c3ccc(Cl)cc3)[C@@H](c3ccc(Cl)cc3)N2C(=O)N2CCNC(=O)C2)c(OC(C)C)c1 (racemic) [Nutlin 3]
MCF7 cells
  fraction of cells containing the TP53-STOP barcode: significantly increased
HCT-116 cells
  fraction of cells containing the TP53-STOP barcode: significantly increased

## COc1cccc2c1C(=O)c1c(O)c3c(c(O)c1C2=O)C[C@@](O)(C(=O)CO)C[C@@H]3O[C@H]1C[C@H](N)[C@H](O)[C@H](C)O1 [doxorubicin]
MCF7 cells
  fraction of cells containing the TP53-STOP barcode: did not affect
HCT-116 cells
  fraction of cells containing the TP53-STOP barcode: did not affect

## COc1cc2ncnc(Nc3ccc(F)c(Cl)c3)c2cc1OCCCN1CCOCC1 [gefitinib]
PC9 cells [1]
  enrichment of KRAS-G12D cells: significant enrichment
PC9 cells [2]
  enrichment of EML4-ALK containing PC9 cells: induced an enrichment
PC9 cells [3]; 25 mg/kg/day by gavage, from day 16 after injection
  growth of the tumors: initially arrested upon gefitinib treatment, but it eventually resumed after a few weeks
PC9 cells [3]; 25 mg/kg/day, qPCR, normalized to cells prior to injection
  proportion of all three mutations (EGFR-T790M, KRAS-G12D, EML4-ALK) in the tumors: strongly increased
